What all share (format): functional
Assay [1] has as its system Eclipta prostrata. In words: Herbicidal activity against two to three-leaf stage Eclipta prostrata assessed as inhibition of plant growth at 150 g/ha in greenhouse by post-emergence herbicidal activity assay. Conditions: read-out: GI.
Assay [2] relates to Eclipta prostrata. Put plainly: Herbicidal activity against two to three-leaf stage Eclipta prostrata assessed as inhibition of plant growth at 450 g/ha in greenhouse by post-emergence herbicidal activity assay. Conditions: read-out: GI.
Assay [3] relates to Amaranthus retroflexus. In words: Herbicidal activity against 2 to 3 leaf stage Amaranthus retroflexus assessed as inhibition of plant growth at 450 g/ha in greenhouse by postemergence herbicidal activity assay. Conditions: post-emergence, read-out: GI.
For assay [4], the system named is Abutilon theophrasti. Put plainly: Herbicidal activity against two to three-leaf stage Abutilon theophrasti (velvetleaf) assessed as inhibition of plant growth at 450 g/ha in greenhouse by post-emergence herbicidal activity assay. To be noted: read-out: GI.
For assay [5], the system named is Brassica rapa subsp. oleifera. In words: Herbicidal activity against two to three-leaf stage Brassica rapa subsp. oleifera assessed as inhibition of plant growth at 450 g/ha in greenhouse by postemergence herbicidal activity assay. To be noted: post-emergence, read-out: GI.
For assay [6], the system named is Amaranthus retroflexus. Put plainly: Herbicidal activity against 2 to 3 leaf stage Amaranthus retroflexus assessed as inhibition of plant growth at 150 g/ha in greenhouse by postemergence herbicidal activity assay. To be noted: post-emergence, read-out: GI.
Assay [7] deals with Brassica rapa subsp. oleifera. In words: Herbicidal activity against two to three-leaf stage Brassica rapa subsp. oleifera assessed as inhibition of plant growth at 150 g/ha in greenhouse by postemergence herbicidal activity assay. Conditions: post-emergence, read-out: GI.
For assay [8], the system named is Abutilon theophrasti. Put plainly: Herbicidal activity against two to three-leaf stage Abutilon theophrasti (velvetleaf) assessed as inhibition of plant growth at 150 g/ha in greenhouse by post-emergence herbicidal activity assay. To be noted: read-out: GI.

Results on 29 compounds are retold here after ChEMBL document CHEMBL3044788, “α-(Substituted-phenoxyacetoxy)-α-heterocyclylmethylphosphonates: synthesis, herbicidal activity, inhibition on pyruvate dehydrogenase complex (PDHc), and application as postemergent herbicide against broadleaf weeds” (J Agric Food Chem, 2013).

Regarding `COP(=O)(OC)C(OC(=O)COc1ccc(Cl)cc1Cl)c1cccs1` (stereo not drawn), the inhibition of growth at 150 g/ha came to 80% in assay [1], 90% in assay [6], 90% in assay [7] and 90% in assay [8]. Besides, the inhibition of growth at 450 g/ha in assay [2], in assay [3], in assay [4] and in assay [5] was 100% each time.

Turning to `COP(=O)(OC)C(OC(=O)COc1cccc(Cl)c1Cl)c1cccs1` (stereo not drawn), the inhibition of growth at 150 g/ha in assay [1] is 40%; in assay [6], 40%; in assay [7], 0%; in assay [8], 0%. For the same compound, the inhibition of growth at 450 g/ha in assay [2] was found to be 85%; in assay [3], 60%; in assay [4], 40%; in assay [5], 40%.

In the case of `COP(=O)(OC)C(OC(=O)COc1ccc(Cl)cc1C)c1cccs1` (stereo not drawn), the inhibition of growth at 150 g/ha in assay [1] amounted to 75%; in assay [6], 80%; in assay [7] it was 80%; in assay [8] it was 60%. For the same compound, the inhibition of growth at 450 g/ha in assay [2] is 100%; in assay [3] it was 100%; in assay [4], 90%; in assay [5], 95%.

Regarding `COP(=O)(OC)C(OC(=O)COc1ccc(Cl)cc1)c1ccco1` (stereo not drawn), the inhibition of growth at 150 g/ha in assay [1] is 70%; in assay [6], 70%; in assay [7], 75%; in assay [8], 75%.

In the case of `COP(=O)(OC)C(OC(=O)COc1cccc(Cl)c1Cl)c1ccco1` (stereo not drawn), the inhibition of growth at 150 g/ha in assay [1] came out at 35%; in assay [6] it was 25%; in assay [7], 30%; in assay [8], 20%.

Take `COP(=O)(OC)C(OC(=O)COc1ccc(Cl)cc1C)c1ccco1` (stereo not drawn): the inhibition of growth at 150 g/ha in assay [1] came out at 60%; in assay [6] it was 80%; in assay [7], 85%; in assay [8] it was 80%.

As for `COP(=O)(OC)C(OC(=O)COc1ccc(Cl)c(C)c1)c1ccco1` (stereo not drawn), the inhibition of growth at 150 g/ha was 75% in assay [1], 80% in assay [6], 80% in assay [7] and 80% in assay [8].

With `COP(=O)(OC)C(OC(=O)COc1ccc(F)cc1F)c1ccco1` (stereo not drawn), the inhibition of growth at 150 g/ha worked out at 40% in assay [1], 50% in assay [6], 60% in assay [7] and 40% in assay [8].

As for `COP(=O)(OC)C(OC(=O)COc1cc(Cl)c(Cl)cc1Cl)c1ccco1` (stereo not drawn), the inhibition of growth at 150 g/ha in assay [1] amounted to 80%; in assay [6], 75%; in assay [7], 85%; in assay [8], 75%.

For `COP(=O)(OC)C(OC(=O)COc1ccc(C#N)cc1)c1cccs1` (stereo not drawn), the inhibition of growth at 150 g/ha in assay [1] is 0%; in assay [6] it was 40%; in assay [7], 30%; in assay [8], 30%. Also, the inhibition of growth at 450 g/ha in assay [2] stood at 60%; in assay [3] it was 40%; in assay [4], 40%; in assay [5] it was 40%.

With `COP(=O)(OC)C(OC(=O)COc1cccc(C(F)(F)F)c1)c1cccs1` (stereo not drawn), the inhibition of growth at 150 g/ha in assay [1] came out at 15%; in assay [6], 20%; in assay [7] it was 30%; in assay [8] it was 20%.

Regarding `COP(=O)(OC)C(OC(=O)COc1ccc(C(F)(F)F)cc1)c1cccs1` (stereo not drawn), the inhibition of growth at 150 g/ha was determined as 30% in assay [1], 20% in assay [6], 20% in assay [7] and 15% in assay [8].

Regarding `COP(=O)(OC)C(OC(=O)COc1ccccc1F)c1cccs1` (stereo not drawn), the inhibition of growth at 150 g/ha in assay [1] was found to be 20%; in assay [6], 15%; in assay [7] it was 0%; in assay [8], 0%.

Consider `COP(=O)(OC)C(OC(=O)COc1ccc(F)cc1F)c1cccs1` (stereo not drawn), for which the inhibition of growth at 150 g/ha in assay [1] amounted to 60%; in assay [6], 60%; in assay [7], 70%; in assay [8] it was 60%. The inhibition of growth at 450 g/ha in assay [2] is 70%; in assay [3], 70%; in assay [4] it was 75%; in assay [5] it was 80%.

For the compound `COP(=O)(OC)C(OC(=O)COc1ccc(Cl)cc1F)c1cccs1` (stereo not drawn), the inhibition of growth at 150 g/ha in assay [1], in assay [6], in assay [7] and in assay [8] was 70% throughout. The inhibition of growth at 450 g/ha in assay [2] was 90%; in assay [3], 75%; in assay [4], 75%; in assay [5], 75%.

Turning to `COP(=O)(OC)C(OC(=O)COc1ccc(F)cc1Cl)c1cccs1` (stereo not drawn), the inhibition of growth at 150 g/ha in assay [1] was 80%; in assay [6], 90%; in assay [7], 75%; in assay [8], 70%. The inhibition of growth at 450 g/ha in assay [2] was 85%; in assay [3], 100%; in assay [4], 90%; in assay [5], 95%.

Consider `COP(=O)(OC)C(OC(=O)COc1cc(Cl)c(Cl)cc1Cl)c1cccs1` (stereo not drawn), for which the inhibition of growth at 150 g/ha in assay [1], in assay [6], in assay [7] and in assay [8] was 80% each time. For the same compound, the inhibition of growth at 450 g/ha in assay [2] turned out to be 50%; in assay [3], 90%; in assay [4], 85%; in assay [5], 95%.

Consider `COP(=O)(OC)C(OC(=O)COc1ccccc1)c1ccco1` (stereo not drawn), for which the inhibition of growth at 150 g/ha in assay [1] amounted to 31%; in assay [6], 6%; in assay [7], 28%; in assay [8], 22%.

On to `COP(=O)(OC)C(OC(=O)COc1cccc(C)c1)c1ccco1` (stereo not drawn), for which the inhibition of growth at 150 g/ha in assay [1] amounted to 30%; in assay [6], 36%; in assay [7], 37%; in assay [8] it was 39%.

Take `COP(=O)(OC)C(OC(=O)COc1ccc(C)cc1)c1ccco1` (stereo not drawn): the inhibition of growth at 150 g/ha in assay [1] was found to be 30%; in assay [6], 23%; in assay [7], 36%; in assay [8], 32%.

Take `COP(=O)(OC)C(OC(=O)COc1cccc(C)c1C)c1ccco1` (stereo not drawn): the inhibition of growth at 150 g/ha turned out to be 30% in assay [1], 50% in assay [6], 40% in assay [7] and 50% in assay [8].

Turning to `COP(=O)(OC)C(OC(=O)COc1ccc(Br)cc1)c1ccco1` (stereo not drawn), the inhibition of growth at 150 g/ha was 60% in assay [1], 60% in assay [6], 75% in assay [7] and 40% in assay [8].

For `COP(=O)(OC)C(OC(=O)COc1ccccc1Cl)c1ccco1` (stereo not drawn), the inhibition of growth at 150 g/ha came out at 30% in assay [1], 40% in assay [6], 40% in assay [7] and 0% in assay [8].

For `COP(=O)(OC)C(OC(=O)COc1ccc(C#N)cc1)c1ccco1` (stereo not drawn), the inhibition of growth at 150 g/ha in assay [1] was determined as 30%; in assay [6] it was 50%; in assay [7] it was 40%; in assay [8], 40%.

With `COP(=O)(OC)C(OC(=O)COc1cccc(C(F)(F)F)c1)c1ccco1` (stereo not drawn), the inhibition of growth at 150 g/ha in assay [1], in assay [6], in assay [7] and in assay [8] was 0% throughout.

For `COP(=O)(OC)C(OC(=O)COc1ccc(C(F)(F)F)cc1)c1ccco1` (stereo not drawn), the inhibition of growth at 150 g/ha in assay [1], in assay [6], in assay [7] and in assay [8] was 0% throughout.

Regarding `COP(=O)(OC)C(OC(=O)COc1ccccc1F)c1ccco1` (stereo not drawn), the inhibition of growth at 150 g/ha in assay [1] was 60%; in assay [6] it was 60%; in assay [7], 75%; in assay [8], 40%.

As to `COP(=O)(OC)C(OC(=O)COc1ccc(Cl)cc1F)c1ccco1` (stereo not drawn), the inhibition of growth at 150 g/ha in assay [1] amounted to 70%; in assay [6], 60%; in assay [7] it was 75%; in assay [8], 70%.

With `COP(=O)(OC)C(OC(=O)COc1ccc(F)cc1Cl)c1ccco1` (stereo not drawn), the inhibition of growth at 150 g/ha in assay [1] stood at 75%; in assay [6], 90%; in assay [7], 85%; in assay [8] it was 75%.
